Results on five compounds are retold here after ChEMBL document CHEMBL4118085, “Plasma Kallikrein Inhibitors for the Treatment of Retinal Vascular Permeability Associated with Diabetic Retinopathy and Diabetic Macular Edema” (ACS Med Chem Lett, 2017).

This experiment concerns the target Plasma kallikrein (Homo sapiens, UniProt P03952). Description: Inhibition of human plasma kallikrein using H-Pro-Phe-Arg-AMC as substrate after 1 hr by fluorescence assay.

Chain of Plasma kallikrein (P03952 20-390 limits assumed): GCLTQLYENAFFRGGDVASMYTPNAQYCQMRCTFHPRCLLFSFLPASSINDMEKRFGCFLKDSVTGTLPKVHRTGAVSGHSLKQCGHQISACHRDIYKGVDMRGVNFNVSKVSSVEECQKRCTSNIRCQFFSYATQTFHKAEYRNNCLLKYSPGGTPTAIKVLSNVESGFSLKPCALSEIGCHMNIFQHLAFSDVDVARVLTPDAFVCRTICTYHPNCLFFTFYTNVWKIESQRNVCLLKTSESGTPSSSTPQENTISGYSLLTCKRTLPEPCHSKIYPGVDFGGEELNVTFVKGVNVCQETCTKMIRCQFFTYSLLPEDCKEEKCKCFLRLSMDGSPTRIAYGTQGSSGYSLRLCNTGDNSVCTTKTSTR
Chain of Plasma kallikrein (P03952 391-638 limits assumed): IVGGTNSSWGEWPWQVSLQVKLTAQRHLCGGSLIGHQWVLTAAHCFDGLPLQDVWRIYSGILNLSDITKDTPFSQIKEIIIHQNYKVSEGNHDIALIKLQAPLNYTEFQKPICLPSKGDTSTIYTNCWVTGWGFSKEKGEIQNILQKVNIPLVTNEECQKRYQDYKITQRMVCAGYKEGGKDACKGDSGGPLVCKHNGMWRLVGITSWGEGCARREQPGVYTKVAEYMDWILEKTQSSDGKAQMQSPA

What is called IC50 is the concentration needed to halve the response being measured. Higher therefore signals weaker potency in that assay. On to `C[C@H]1CCN(c2ccc(Cn3cc(C(=O)N[C@@H]4CCc5nc(N)ccc54)cn3)cn2)C1`, for which the midpoint of inhibition, the IC50, lay at 19 nM. In other words, the double-digit nanomolar range.

Regarding `Cc1cc(N)nc2c1C(NC(=O)c1cnn(Cc3ccc(Cn4ccccc4=O)cc3)c1)CC2` (stereo not given), the IC50 is 4 nM. This IC50 lies about 4.8-fold lower than the previous one.

On to `Cc1cnn(Cc2ccc(Cn3nc(C(=O)N[C@@H]4CCc5c4ccnc5N)cc3C(F)(F)F)cc2)c1`, for which the 50% inhibitory concentration (IC50) came to 1 nM. Compared with the last compound, the IC50 is about 4-fold lower.

In turn, `Cc1ccc2cc(Cn3cc(C(=O)N[C@H]4CCc5nc(N)ccc54)nn3)ccc2n1` showed an IC50 of 1900 nM.

On to `Nc1ccc2c(n1)CCC2NC(=O)c1cnn(Cc2ccc(Cn3ccccc3=O)cc2)c1` (stereo not given), for which it took 9 nM to reach half-maximal inhibition (IC50).
